Key:
Type in all cases: functional
[1] = test system: Priestia megaterium; experiment: Antimicrobial activity against Bacillus megaterium by agar diffusion technique
[2] = test system: Aspergillus oryzae; experiment: Antifungal activity against Aspergillus oryzae by agar diffusion technique
[3] = test system: Aspergillus niger; experiment: Antifungal activity against Aspergillus niger by agar diffusion technique
[4] = test system: Bacillus subtilis; experiment: Antimicrobial activity against Bacillus subtilis by agar diffusion technique
[5] = test system: Escherichia coli; experiment: Antimicrobial activity against Escherichia coli by agar diffusion technique
[6] = test system: Priestia megaterium; experiment: Antimicrobial activity against Bacillus megaterium at 25 ug/mL by agar diffusion technique; conditions: read-out: IZ
[7] = test system: Aspergillus niger; experiment: Antifungal activity against Aspergillus niger at 25 ug/mL by agar diffusion technique; conditions: read-out: IZ
[8] = test system: Escherichia coli; experiment: Antimicrobial activity against Escherichia coli at 25 ug/mL by agar diffusion technique; conditions: read-out: IZ
[9] = test system: Bacillus subtilis; experiment: Antimicrobial activity against Bacillus subtilis at 25 ug/mL by agar diffusion technique; conditions: read-out: IZ
[10] = test system: Aspergillus oryzae; experiment: Antifungal activity against Aspergillus oryzae at 25 ug/mL by agar diffusion technique; conditions: read-out: IZ

SMILES | inhibition zone (IZ) [1] | inhibition zone (IZ) [2] | inhibition zone (IZ) [3] | inhibition zone (IZ) [4] | inhibition zone (IZ) [5] | zone of inhibition at 25 µg/mL [6] | zone of inhibition at 25 µg/mL [7] | zone of inhibition at 25 µg/mL [8] | zone of inhibition at 25 µg/mL [9] | zone of inhibition at 25 µg/mL [10]
O=c1c2c(ncn1/N=C/C1=C(Cl)c3ccccc3CC1)sc(=S)n2-c1ccccc1 | 92 mm | 86 mm | 78 mm | 95 mm | 85 mm | – | – | – | – | –
Cc1csc(N/N=C/C2=C(Cl)c3ccccc3CC2)n1 | 60 mm | 75 mm | 72 mm | 55 mm | 40 mm | – | – | – | – | –
Cc1nc(N/N=C/C2=C(Cl)c3ccccc3CC2)sc1/N=N/c1ccccc1 | 86 mm | 89 mm | 84 mm | 81 mm | 60 mm | – | – | – | – | –
ClC1=C(/C=N/Nc2nc(-c3ccccc3)cs2)CCc2ccccc21 | 68 mm | 79 mm | 77 mm | 65 mm | 56 mm | – | – | – | – | –
CC1(C)S[C@@H]2[C@H](NC(=O)[C@H](N)c3ccccc3)C(=O)N2[C@H]1C(=O)O [AMPICILLIN] | – | – | – | – | – | 29 mm | 33 mm | 26 mm | 40 mm | –
Nc1sc(=S)n(-c2ccccc2)c1C(=O)N/N=C/C1=C(Cl)c2ccccc2CC1 | 82 mm | 75 mm | 64 mm | 89 mm | 60 mm | – | – | – | – | –
COc1ccc(/N=N/c2sc(N/N=C/C3=C(Cl)c4ccccc4CC3)nc2C)cc1 | 85 mm | 86 mm | 80 mm | 87 mm | 50 mm | – | – | – | – | –
O=C(N[C@H](CO)[C@H](O)c1ccc([N+](=O)[O-])cc1)C(Cl)Cl [CHLORAMPHENICOL] | – | – | – | – | – | 55 mm | 35 mm | 48 mm | 30 mm | –
ClC1=C(/C=N/Nc2nc(-c3ccccc3)c(/N=N/c3ccccc3)s2)CCc2ccccc21 | 79 mm | 82 mm | 79 mm | 85 mm | 49 mm | – | – | – | – | –
CCOC(=O)C1SC(N/N=C/C2=C(Cl)c3ccccc3CC2)=NC1=O (configuration not stated) | 35 mm | 73 mm | 69 mm | 42 mm | – | – | – | – | – | –
O=C1/C(=C\c2ccc(Cl)cc2)S/C(=N\N=C\C2=C(Cl)c3ccccc3CC2)N1c1ccccc1 | 43 mm | 69 mm | 58 mm | 42 mm | – | – | – | – | – | –
O=C1CSC(N/N=C/C2=C(Cl)c3ccccc3CC2)=N1 | 40 mm | 78 mm | 66 mm | 35 mm | 30 mm | – | – | – | – | –
COc1ccc(/N=N/c2sc(N/N=C/C3=C(Cl)c4ccccc4CC3)nc2-c2ccccc2)cc1 | 84 mm | 86 mm | 75 mm | 90 mm | 55 mm | – | – | – | – | –
O=C1N=C(N/N=C/C2=C(Cl)c3ccccc3CC2)S/C1=C/c1ccc(Cl)cc1 | 34 mm | 74 mm | 75 mm | 34 mm | 25 mm | – | – | – | – | –
O=C1CS/C(=N\N=C\C2=C(Cl)c3ccccc3CC2)N1c1ccccc1 | 55 mm | 71 mm | 63 mm | 66 mm | – | – | – | – | – | –
OC(Cn1cncn1)(Cn1cncn1)c1ccc(F)cc1F [FLUCONAZOLE] | – | – | – | – | – | – | 22 mm | – | – | 16 mm

From ChEMBL document CHEMBL1147204, “Synthesis and antimicrobial evaluation of some new thiazole, thiazolidinone and thiazoline derivatives starting from 1-chloro-3,4-dihydronaphthalene-2-carboxaldehyde” (2007)
